Reference: US20040091407A1, “Novel process for preparing crystalline particles” (priority 2000, published 2004)

Test: Particle size measurement using a Malvern Particle Sizer S
Type: physicochemical
Conditions: crystalline particles of the calcium salt monohydrate prepared by sonocrystallisation
Experimental: Particle size of the two samples were measured using a Malvern Particle Sizer S. The (v0.5) values are as shown below: […]

| SMILES | D(v,0.5) particle size [microns] |
| --- | --- |
| C/C(=C/C(=O)c1ccccc1)N[C@@H](Cc1ccc(OCCc2nc(-c3ccccc3)oc2C)cc1)C(=O)[O-].C/C(=C/C(=O)c1ccccc1)N[C@@H](Cc1ccc(OCCc2nc(-c3ccccc3)oc2C)cc1)C(=O)[O-].[Ca+2] [Sample 1, calcium salt of (2S)-2-{[(Z)-1-methyl-3-oxo-3-phenyl-1-propenyl]amino}-3-{4-[2-(5-methyl-2-phenyl-1,3-oxazol-4-yl)ethoxy]phenyl}propanoic acid] | 32.2 |
| C/C(=C/C(=O)c1ccccc1)N[C@@H](Cc1ccc(OCCc2nc(-c3ccccc3)oc2C)cc1)C(=O)[O-].C/C(=C/C(=O)c1ccccc1)N[C@@H](Cc1ccc(OCCc2nc(-c3ccccc3)oc2C)cc1)C(=O)[O-].[Ca+2] [Sample 2, calcium salt of (2S)-2-{[(Z)-1-methyl-3-oxo-3-phenyl-1-propenyl]amino}-3-{4-[2-(5-methyl-2-phenyl-1,3-oxazol-4-yl)ethoxy]phenyl}propanoic acid] | 42.3 |
